Patent US20250026880A1, “POLY(DIALLYLDIMETHYLAMMONIUM) FLUORIDE - A NEW ANTI-CARIES AND REMINERALIZING AGENT” (The University of Hong Kong, priority 2023, published 2025)

Test: Remineralizing properties on EDTA-etched dentin blocks soaked in simulated body fluid (SEM/EDX)
Conditions: 15 μL applied on dentin etched by 10% EDTA; soaked in simulated body fluid for 7 d; PDDAF 280,000 ppm, SDF 38%
Experimental: The volume of both solutions applied on dentin surface is 15 μL.
The remineralizing properties of 280,000 ppm cationic polymer fluoride solution was examined. […] Dentin blocks with the dimensions of 4 mm×4 mm×2 mm were prepared (FIGS. 8C-8D, 9C-9D).

Substance: silver diamine fluoride [38% SDF]
- minerals formed on re-mineralized dentin surface (EDX): formation of mineral calcium phosphate and silver chloride
